Molecules are shown by their SMILES.

For this series, the system named is ICR strain male mice (Crj:CD-1). Description: Test for investigating the increase of leukocytes and the decrease of platelets in normal mice. The series is classed as in vivo. Here is the method:
ICR strain male mice (Crj:CD-1) aged 8 weeks were used in the test. The animals were divided into 5 groups of 3 to 4 animals each. The following were intravenously and repeatedly administered to the groups, respectively, for 5 days; a first group: physiological saline as solvent, a second group: the compound of Example 45 (hydrochloride of the compound of Example 1) (10 mg/kg/day), a third group: the compound of Example 45 (50 mg/kg/day), a fourth group: the compound of Example 45 (250 mg/kg/day), and a fifth group: sulphostin (WO 99/25719 and JP-A-2000-327689; (3S, PR)-3-amino-1-amino(sulfoamino)phosphinyl-2-piperidone) (50 mg/kg/day). On the day subsequent to the last day in the administration period, blood was drawn from the abdominal aorta under anesthesia and the number of leukocytes and the number of platelets were measured.

[1] abbreviates: normal mice, 50 mg/kg/day i.v. for 5 days, blood drawn day after last administration.

Consider `N[C@H]1CCCN([P@@](N)(=O)NS(=O)(=O)O)C1=O` [sulphostin, (3S, PR)-3-amino-1-amino(sulfoamino)phosphinyl-2-piperidone, reference compound], for which the “number of platelets as compared with the control group” value (50 mg/kg/day, decreased) stood at 73%. Also, under setting [1], the Number of platelets was 57.1 ± 5.1 ×10000/millimeter cube and the number of leukocytes is listed as 15 ± 5 ×100/millimeter cube.

(Values after patent publication US7348318B2, “α-Amino-N-(diaminophosphinyl)lactam derivatives” (priority 2002, dated 2008).)
